From ChEMBL document CHEMBL1152560, “Substituted 2-arylbenzothiazoles as kinase inhibitors: hit-to-lead optimization” (Bioorg Med Chem, 2009)

Key:
[1] = target: T1, Interleukin-1 receptor-associated kinase 4 (Homo sapiens) (UniProt Q9NWZ3); assay: Residual activity of IRAK4 at 0.1 uM by microplate scintillation counting
T1 sequence (whole entry): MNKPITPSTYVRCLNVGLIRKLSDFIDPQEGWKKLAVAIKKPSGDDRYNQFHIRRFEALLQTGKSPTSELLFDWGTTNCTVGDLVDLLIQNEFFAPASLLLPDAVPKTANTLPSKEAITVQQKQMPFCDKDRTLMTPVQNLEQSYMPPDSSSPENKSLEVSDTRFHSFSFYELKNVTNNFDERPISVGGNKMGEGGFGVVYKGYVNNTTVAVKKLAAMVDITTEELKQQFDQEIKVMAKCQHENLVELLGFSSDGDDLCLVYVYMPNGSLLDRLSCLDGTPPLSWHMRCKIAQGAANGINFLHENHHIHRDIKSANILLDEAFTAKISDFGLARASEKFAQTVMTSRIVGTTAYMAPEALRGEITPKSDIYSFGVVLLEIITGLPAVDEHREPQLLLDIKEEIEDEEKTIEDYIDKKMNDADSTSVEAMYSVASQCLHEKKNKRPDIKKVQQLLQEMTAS

[2] = target: Dual specificity tyrosine-phosphorylation-regulated kinase 1B (Homo sapiens) (UniProt Q9Y463); assay: Residual activity of DYRK1B at 10 uM by microplate scintillation counting
[3] = target: T2, Ephrin type-A receptor 1 (Homo sapiens) (UniProt P21709); assay: Residual activity of EPHA1 at 10 uM by microplate scintillation counting
T2 sequence (whole entry): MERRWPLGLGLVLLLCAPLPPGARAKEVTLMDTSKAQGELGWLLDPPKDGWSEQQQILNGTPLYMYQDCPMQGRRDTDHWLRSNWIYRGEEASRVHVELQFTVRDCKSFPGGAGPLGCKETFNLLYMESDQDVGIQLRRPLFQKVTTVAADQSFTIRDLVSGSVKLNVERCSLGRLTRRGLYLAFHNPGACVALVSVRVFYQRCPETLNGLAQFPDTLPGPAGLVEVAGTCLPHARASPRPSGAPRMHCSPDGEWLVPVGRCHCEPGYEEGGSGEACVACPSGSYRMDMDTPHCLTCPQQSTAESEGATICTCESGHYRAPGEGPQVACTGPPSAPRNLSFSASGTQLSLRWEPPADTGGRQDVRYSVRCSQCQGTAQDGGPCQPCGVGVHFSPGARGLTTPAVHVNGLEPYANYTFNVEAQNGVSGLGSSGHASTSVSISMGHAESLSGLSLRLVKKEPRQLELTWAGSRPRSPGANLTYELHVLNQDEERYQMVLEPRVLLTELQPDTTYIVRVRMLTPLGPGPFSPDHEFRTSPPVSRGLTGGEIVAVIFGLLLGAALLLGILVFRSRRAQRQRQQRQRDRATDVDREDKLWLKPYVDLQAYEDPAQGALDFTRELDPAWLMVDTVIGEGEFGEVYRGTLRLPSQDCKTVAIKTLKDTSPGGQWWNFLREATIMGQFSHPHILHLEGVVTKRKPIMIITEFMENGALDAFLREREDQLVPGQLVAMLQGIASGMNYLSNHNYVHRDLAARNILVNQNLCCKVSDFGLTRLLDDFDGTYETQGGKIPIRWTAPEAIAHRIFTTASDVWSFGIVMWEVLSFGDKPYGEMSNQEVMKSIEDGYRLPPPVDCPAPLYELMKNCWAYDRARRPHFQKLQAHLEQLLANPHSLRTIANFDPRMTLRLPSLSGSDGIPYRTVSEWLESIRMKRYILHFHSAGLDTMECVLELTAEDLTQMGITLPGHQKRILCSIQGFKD

[4] = target: T3, Serine/threonine-protein kinase D1 (Homo sapiens) (UniProt Q15139); assay: Residual activity of PKCmu at 0.1 uM by microplate scintillation counting
T3 sequence (whole entry): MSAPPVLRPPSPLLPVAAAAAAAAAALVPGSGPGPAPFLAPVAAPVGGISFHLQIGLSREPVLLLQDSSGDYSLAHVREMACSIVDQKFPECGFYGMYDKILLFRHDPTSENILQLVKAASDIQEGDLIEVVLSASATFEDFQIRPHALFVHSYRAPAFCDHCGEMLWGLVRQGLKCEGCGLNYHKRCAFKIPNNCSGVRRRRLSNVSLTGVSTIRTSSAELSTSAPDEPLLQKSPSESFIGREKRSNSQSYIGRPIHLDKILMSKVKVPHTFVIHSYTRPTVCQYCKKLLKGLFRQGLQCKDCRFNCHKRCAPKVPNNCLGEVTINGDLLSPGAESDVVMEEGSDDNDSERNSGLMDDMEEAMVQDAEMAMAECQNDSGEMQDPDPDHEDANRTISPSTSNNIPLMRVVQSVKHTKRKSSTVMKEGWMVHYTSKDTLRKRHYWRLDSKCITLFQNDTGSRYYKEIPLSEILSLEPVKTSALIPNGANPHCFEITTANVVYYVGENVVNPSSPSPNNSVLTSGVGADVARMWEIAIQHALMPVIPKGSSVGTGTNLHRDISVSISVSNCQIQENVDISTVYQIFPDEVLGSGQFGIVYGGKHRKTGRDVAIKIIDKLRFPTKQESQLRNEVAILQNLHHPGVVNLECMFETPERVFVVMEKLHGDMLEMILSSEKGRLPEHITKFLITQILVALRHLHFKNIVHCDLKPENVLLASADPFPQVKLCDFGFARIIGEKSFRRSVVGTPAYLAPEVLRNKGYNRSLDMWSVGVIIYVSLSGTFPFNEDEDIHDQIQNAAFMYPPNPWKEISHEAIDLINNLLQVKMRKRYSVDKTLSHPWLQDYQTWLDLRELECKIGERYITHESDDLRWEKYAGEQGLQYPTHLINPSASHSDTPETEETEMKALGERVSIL

Dual specificity tyrosine-phosphorylation-regulated kinase 1B (Homo sapiens), sequence (Q9Y463 whole entry, looked up): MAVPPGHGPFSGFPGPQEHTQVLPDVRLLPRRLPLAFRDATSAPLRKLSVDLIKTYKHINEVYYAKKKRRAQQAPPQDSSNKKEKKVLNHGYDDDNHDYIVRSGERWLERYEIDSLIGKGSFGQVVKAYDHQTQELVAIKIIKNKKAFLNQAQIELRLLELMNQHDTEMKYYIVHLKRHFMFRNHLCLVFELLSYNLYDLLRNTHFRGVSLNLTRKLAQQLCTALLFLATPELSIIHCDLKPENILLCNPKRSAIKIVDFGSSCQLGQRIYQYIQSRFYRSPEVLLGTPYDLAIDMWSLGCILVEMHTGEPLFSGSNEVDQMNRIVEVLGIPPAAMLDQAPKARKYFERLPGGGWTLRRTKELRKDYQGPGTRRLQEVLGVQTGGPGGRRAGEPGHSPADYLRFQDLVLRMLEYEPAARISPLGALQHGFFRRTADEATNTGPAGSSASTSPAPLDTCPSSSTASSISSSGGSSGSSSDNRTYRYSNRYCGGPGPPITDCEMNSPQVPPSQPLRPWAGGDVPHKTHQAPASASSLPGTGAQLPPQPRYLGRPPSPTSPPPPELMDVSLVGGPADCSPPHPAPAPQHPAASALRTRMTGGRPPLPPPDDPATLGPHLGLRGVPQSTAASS

residual activity [1] [%]	residual activity [2] [%]	residual activity [3] [%]	residual activity [4] [%]	SMILES
96	136	199	102	COc1cc2c(Oc3ccc(-c4nc5ccccc5s4)cc3)ncnc2cc1OCCCN1CCCC1
100	224	169	91	COc1cc2c(Oc3ccc(-c4nc5ccccc5s4)cc3)ncnc2cc1OCCCN1CCN(C)CC1
101	194	79	81	COc1cc2c(Oc3ccc(-c4nc5ccccc5s4)cc3F)ncnc2cc1OCCCN1CCN(C)CC1
